In ChEMBL document CHEMBL4825734, “Synthesis, activity and mechanism for double-ring conjugated enones” (Bioorg Med Chem Lett, 2021):
Activity calls are given as the source filed them. The rule behind the calls is not given here.

Key:
Synovial cell [1] = assay: Antiinflammatory activity in rat synovial cells assessed as decrease in LPS-induced MyD88 protein expression at 1 uM by DAPI staining based immunofluorescence microscopic analysis; format: functional
Synovial cell [2] = assay: Antiinflammatory activity in rat synovial cells assessed as downregulation of LPS-induced IL-1 beta production at 1 uM measured by ELISA; format: functional, cell-based
Synovial cell [3] = assay: Antiinflammatory activity in LPS-stimulated rat synovial cells assessed as increase in IkappaB protein expression at 1 uM by DAPI staining based immunofluorescence microscopic analysis; format: functional
Synovial cell [4] = assay: Antiinflammatory activity in rat synovial cells assessed as decrease in LPS-induced NF-kappaB protein expression at 1 uM by DAPI staining based immunofluorescence microscopic analysis; format: functional
Toll-like receptor 4 = Toll-like receptor 4 (Homo sapiens, UniProt O00206); assay: Inhibition of TLR4 (unknown origin) by sandwich ELISA method
Synovial cell [5] = assay: Induction of apoptosis in rat synovial cells assessed as green coloured positive apoptotic cells with nuclear pyknosis and chromatin condensation at 1 uM in presence of LPS by TUNEL staining based microscopic analysis; format: functional
Synovial cell [6] = assay: Antiinflammatory activity in rat synovial cells assessed as decrease in LPS-induced TLR4 protein expression at 1 uM by DAPI staining based immunofluorescence microscopic analysis; format: functional
Synovial cell [7] = assay: Antiinflammatory activity in rat synovial cells assessed as downregulation of LPS-induced TNF-alpha production at 1 uM measured by ELISA; format: functional, cell-based
Synovial cell [8] = assay: Antiinflammatory activity in rat synovial cells assessed as downregulation of LPS-induced IL-6 production at 1 uM measured by ELISA; format: functional, cell-based
Synovial cell [9] = assay: Inhibition of LPS-induced cytomorphological changes in rat synovial cells assessed as reduction in refractive ability with irregular spindle or round shaped cell body at 1 uM; format: functional, cell-based
Synovial cell [10] = assay: Induction of apoptosis in rat synovial cells assessed as increase in caspase-3 expression at 1 uM in presence of LPS by DAPI staining based immunofluorescence microscopic analysis; format: functional
Synovial cell [11] = assay: Inhibition of LPS-induced abnormal proliferation in rat synovial cells assessed as reduction in cell number at 1 uM; format: functional, cell-based

Toll-like receptor 4, sequence (O00206 whole entry): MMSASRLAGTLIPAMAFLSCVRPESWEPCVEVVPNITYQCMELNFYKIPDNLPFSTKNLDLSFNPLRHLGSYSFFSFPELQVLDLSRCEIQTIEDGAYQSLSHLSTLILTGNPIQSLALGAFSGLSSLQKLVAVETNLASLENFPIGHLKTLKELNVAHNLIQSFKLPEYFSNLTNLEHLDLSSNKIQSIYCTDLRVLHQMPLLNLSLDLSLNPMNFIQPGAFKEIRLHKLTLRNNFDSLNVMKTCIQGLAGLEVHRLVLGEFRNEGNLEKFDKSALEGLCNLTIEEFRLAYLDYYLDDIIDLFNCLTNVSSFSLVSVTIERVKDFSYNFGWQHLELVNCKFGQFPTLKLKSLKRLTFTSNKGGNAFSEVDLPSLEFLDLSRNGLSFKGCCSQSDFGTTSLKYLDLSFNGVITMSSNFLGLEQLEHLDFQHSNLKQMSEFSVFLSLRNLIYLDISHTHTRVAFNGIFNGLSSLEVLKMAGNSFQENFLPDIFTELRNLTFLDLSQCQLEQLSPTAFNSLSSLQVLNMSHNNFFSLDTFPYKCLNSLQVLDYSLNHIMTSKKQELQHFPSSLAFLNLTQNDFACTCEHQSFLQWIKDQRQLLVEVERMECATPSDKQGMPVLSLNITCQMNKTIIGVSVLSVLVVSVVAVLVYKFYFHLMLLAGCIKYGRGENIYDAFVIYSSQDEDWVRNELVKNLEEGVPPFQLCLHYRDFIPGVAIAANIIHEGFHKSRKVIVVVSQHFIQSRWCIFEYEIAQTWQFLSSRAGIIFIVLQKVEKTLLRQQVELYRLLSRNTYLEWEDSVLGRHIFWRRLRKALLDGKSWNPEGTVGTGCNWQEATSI

CN(Cc1cnc2nc(N)nc(N)c2n1)c1ccc(C(=O)N[C@@H](CCC(=O)O)C(=O)O)cc1 [METHOTREXATE]
Activity (Synovial cell [1]): Active | Activity (Synovial cell [2]): Active | Activity (Synovial cell [3]): Active | Activity (Synovial cell [4]): Active | IC50 (Toll-like receptor 4): 1040 nM | Activity (Synovial cell [5]): Active | Activity (Synovial cell [6]): Active | Activity (Synovial cell [7]): Active | Activity (Synovial cell [8]): Active | inhibition (Synovial cell [9]): Active | Activity (Synovial cell [10]): Active | inhibition (Synovial cell [11]): Active

O=C1C=C2CCCCC2C(=O)CC1 (stereo unspecified)
IC50 (Toll-like receptor 4): 1850 nM

CC(C)[C@H]1CCC2C(=O)CC(=O)C=C21 (stereo partly specified)
IC50 (Toll-like receptor 4): 2530 nM

CCCC1CCC([C@@H]2CCC3=CC(=O)CC(=O)C3C2)CC1 (stereo partly specified)
IC50 (Toll-like receptor 4): 730 nM

CC(C)[C@H]1CCC2C(=O)CCC(=O)C=C21 (stereo partly specified)
IC50 (Toll-like receptor 4): 2820 nM

O=C1C=C2CC[C@@H](NC(=O)OCc3ccccc3)CC2C(=O)C1 (stereo partly specified)
Activity (Synovial cell [1]): Active | Activity (Synovial cell [2]): Active | Activity (Synovial cell [3]): Active | Activity (Synovial cell [4]): Active | IC50 (Toll-like receptor 4): 560 nM | Activity (Synovial cell [5]): Active | Activity (Synovial cell [6]): Active | Activity (Synovial cell [7]): Active | Activity (Synovial cell [8]): Active | inhibition (Synovial cell [9]): Active | Activity (Synovial cell [10]): Active | inhibition (Synovial cell [11]): Active

O=C1C=C2C(CC[C@@H]2Cl)C(=O)C1 (stereo partly specified)
IC50 (Toll-like receptor 4): 2710 nM

CCOC(=O)[C@H]1CCCC2C(=O)CC(=O)C=C21 (stereo partly specified)
IC50 (Toll-like receptor 4): 1540 nM

C[C@H]1CCC2C(=O)CCC(=O)C=C2C1 (stereo partly specified)
IC50 (Toll-like receptor 4): 2660 nM
